pIC50: −log10 of the molar value. ≈ marks a conversion by molar mass, not a printed value.
How the values were obtained:
[1] = Inhibition of NF-kappaB by ELISA assay; design: species or system Homo sapiens
LNCaP = test: Cytotoxicity against LNCaP cells; assay type: functional; conditions: Homo sapiens, read-out: ED50 (the source's name)
Lu1 = test: Cytotoxicity against Lu1 cells; assay type: functional; conditions: Homo sapiens, read-out: ED50 (the source's name)
MCF7 = test: Cytotoxicity against MCF7 cells; assay type: functional; conditions: Homo sapiens, read-out: ED50 (the source's name)

Compound	pIC50 [1]	other results
COc1ccc(C2OC(=O)c3c(OC)cc(OC)cc32)cc1 (centres undefined)	5.72	
C/C=C1/C(=O)C[C@H]2[C@@H]3CC=C4[C@@H](O)[C@@H](O)CC[C@]4(C)[C@H]3CC[C@]12C		EC50 (LNCaP): 4.7 µg/mL (≈ 14.2 µM); EC50 (Lu1): 4.6 µg/mL (≈ 13.9 µM); EC50 (MCF7): 4.2 µg/mL (≈ 12.7 µM)
COc1ccc([C@]23Oc4cc(OC)cc(OC)c4[C@](O)([C@H](C(=O)N4CCC[C@@H]4OC)[C@H]2c2ccccc2)[C@@H]3O)cc1 (relative stereo) [PONAPENSIN]	7.22	
CCC(C)C(=O)N[C@@H]1CCCN1C(=O)[C@@H]1[C@@H](c2ccccc2)[C@]2(c3ccc(OC)cc3)Oc3cc(OC)cc(OC)c3[C@@]1(O)[C@@H]2OC(C)=O (some centres undefined) [4-EPIAGLAIN A]	< 5.30	
COC(=O)[C@H]1[C@@H](O)[C@@]2(O)c3c(OC)cc(OC)cc3O[C@@]2(c2ccc(OC)cc2)[C@@H]1c1ccccc1 [AGLAFOLIN]	5.64	
CCC(C)C(=O)N[C@@H]1CCCN1C(=O)[C@H]1[C@H](c2ccccc2)[C@]2(c3ccc(OC)cc3)Oc3cc(OC)cc(OC)c3[C@@]1(O)[C@@H]2O (some centres undefined) [AGLAIN B]	< 5.30	
COc1ccc([C@@]23Oc4cc(OC)cc(OC)c4[C@]2(O)[C@H](O)[C@H](C(=O)N(C)C)[C@H]3c2ccccc2)cc1 [ROCAGLAMIDE]	5.70	
